Laboratory results reported in ChEMBL document CHEMBL3046047, “Synthesis and evaluation of anti-inflammatory and analgesic activity of 3-[(5-substituted-1,3,4-oxadiazol-2-yl-thio)acetyl]-2H-chromen-2-ones” (Med Chem Res, 2012).

Assays:
[1] = system: Rattus norvegicus; experiment: Toxicity inRattus norvegicus albino (rat) assessed as ulcer index at 200 mg/kg, po after 7 hr relative to control; assay type: organism-based; design: dose 200 mg/kg, route oral; conditions: in vivo
[2] = system: Mus musculus; experiment: Acute toxicity in Mus musculus albino (mouse) assessed as mortality up to 2000 mg/kg, po after 24 hr; assay type: organism-based; design: dose 2000 mg/kg, route oral; conditions: in vivo
[3] = system: Mus musculus; experiment: Acute toxicity in Mus musculus albino (mouse) assessed as alertness, touch response, and restlessness at 10 to 2000 mg/kg, po after 24 hr; assay type: organism-based; design: dose 10-2000 mg/kg, route oral; conditions: in vivo
[4] = system: Rattus norvegicus; experiment: Acute Anti-inflammatory activity in Rattus norvegicus albino (rat) assessed as inhibition of carrageenan-induced paw edema at 200 mg/kg, po administered 1 hr after carrageenan challenge measured after 5 hr relative to control; assay type: functional
[5] = Acute toxicity in po dosed Mus musculus albino (mouse) up to 24 hr; assay type: organism-based; conditions: in vivo
[6] = system: Mus musculus; experiment: Analgesic activity in Mus musculus albino (mouse) assessed as protection against acetic acid-induced writhing at 200 mg/kg, po administered 30 min before acetic acid challenge measured after 15 min relative to control; assay type: functional
[7] = system: Rattus norvegicus; experiment: Acute Anti-inflammatory activity inRattus norvegicus albino (rat) assessed as inhibition of carrageenan-induced paw edema at 200 mg/kg, po administered 1 hr after carrageenan challenge measured after 3 hr relative to control; assay type: functional
[8] = system: Mus musculus; experiment: Analgesic activity in Mus musculus albino (mouse) assessed as protection against acetic acid-induced writhing at 135 mg/kg, po administered 30 min before acetic acid challenge measured after 15 min relative to control; assay type: functional
[9] = system: Rattus norvegicus; experiment: Acute Anti-inflammatory activity in Rattus norvegicus albino (rat) assessed as inhibition of carrageenan-induced paw edema at 13.5 mg/kg, po administered 1 hr after carrageenan challenge measured after 3 hr relative to control; assay type: functional
[10] = system: Rattus norvegicus; experiment: Acute Anti-inflammatory activity in Rattus norvegicus albino (rat) assessed as inhibition of carrageenan-induced paw edema at 13.5 mg/kg, po administered 1 hr after carrageenan challenge measured after 5 hr relative to control; assay type: functional

CC(C(=O)O)c1ccc(-c2ccccc2)c(F)c1 (stereo not given) [FLURBIPROFEN]
UI [1]: 5.3

C[C@H](c1ccc(-c2ccccc2)c(F)c1)c1nnc(SCC(=O)c2cc3ccccc3oc2=O)o1
Activity [2]: Non-toxic
Activity [3]: Toxic
UI [1]: 2.3
inhibition in vivo at 200 mg/kg [4]: 61.6%
MTD at 24 h [5]: 200 mg/kg
Activity [6]: 60%
inhibition in vivo at 200 mg/kg [7]: 74.9%

CC(=O)Oc1ccccc1C(=O)O [ASPIRIN]
Activity [8]: 69%

O=C(Cc1ccccc1Nc1c(Cl)cccc1Cl)OCc1nnc(SCC(=O)c2cc3ccccc3oc2=O)o1
Activity [2]: Non-toxic
Activity [3]: Toxic
inhibition in vivo at 200 mg/kg [4]: 26.3%
MTD at 24 h [5]: 200 mg/kg
inhibition in vivo at 200 mg/kg [7]: 37.5%

O=C(O)Cc1ccccc1Nc1c(Cl)cccc1Cl [DICLOFENAC]
inhibition in vivo at 13.5 mg/kg [9]: 79.5%
UI [1]: 5.5
inhibition in vivo at 13.5 mg/kg [10]: 75%

CC(C)Cc1ccc(C(C)c2nnc(SCC(=O)c3cc4ccccc4oc3=O)o2)cc1 (stereo not given)
Activity [2]: Non-toxic
Activity [3]: Toxic
inhibition in vivo at 200 mg/kg [4]: 46.1%
MTD at 24 h [5]: 200 mg/kg
inhibition in vivo at 200 mg/kg [7]: 45%

O=C(CSc1nnc(Cc2ccccc2Nc2c(Cl)cccc2Cl)o1)c1cc2ccccc2oc1=O
Activity [2]: Non-toxic
Activity [3]: Toxic
UI [1]: 1.7
inhibition in vivo at 200 mg/kg [4]: 64.5%
MTD at 24 h [5]: 200 mg/kg
Activity [6]: 68%
inhibition in vivo at 200 mg/kg [7]: 81.3%

CC(c1cccc(C(=O)c2ccccc2)c1)c1nnc(SCC(=O)c2cc3ccccc3oc2=O)o1 (stereo not given)
Activity [2]: Non-toxic
Activity [3]: Toxic
UI [1]: 3.2
inhibition in vivo at 200 mg/kg [4]: 60.9%
MTD at 24 h [5]: 200 mg/kg
Activity [6]: 73%
inhibition in vivo at 200 mg/kg [7]: 65.4%

COc1ccc2c(c1)c(Cc1nnc(SCC(=O)c3cc4ccccc4oc3=O)o1)c(C)n2C(=O)c1ccc(Cl)cc1
Activity [2]: Non-toxic
Activity [3]: Toxic
inhibition in vivo at 200 mg/kg [4]: 51.3%
MTD at 24 h [5]: 200 mg/kg
inhibition in vivo at 200 mg/kg [7]: 56.9%

O=C(CSc1nnc(C2CCn3c(C(=O)c4ccccc4)ccc32)o1)c1cc2ccccc2oc1=O (stereo not given)
Activity [2]: Non-toxic
Activity [3]: Toxic
UI [1]: 4.4
inhibition in vivo at 200 mg/kg [4]: 71.3%
MTD at 24 h [5]: 200 mg/kg
Activity [6]: 54%
inhibition in vivo at 200 mg/kg [7]: 67.4%

O=C(CSc1nnc(-c2ccccc2O)o1)c1cc2ccccc2oc1=O
Activity [2]: Non-toxic
Activity [3]: Toxic
inhibition in vivo at 200 mg/kg [4]: 48.7%
MTD at 24 h [5]: 200 mg/kg
inhibition in vivo at 200 mg/kg [7]: 46.3%

O=C(c1ccccc1)c1ccc2n1CCC2C(=O)O (stereo not given) [KETOROLAC]
UI [1]: 4.9

CC(C(=O)O)c1cccc(C(=O)c2ccccc2)c1 (stereo not given) [KETOPROFEN]
UI [1]: 4.6

CC(=O)Nc1ccc(OCc2nnc(SCC(=O)c3cc4ccccc4oc3=O)o2)cc1
Activity [2]: Non-toxic
Activity [3]: Toxic
inhibition in vivo at 200 mg/kg [4]: 43.4%
MTD at 24 h [5]: 200 mg/kg
inhibition in vivo at 200 mg/kg [7]: 56.3%
